Measurements: patent publication US20140031288A1, “NOVEL COMPOSITION FOR TUMOR GROWTH CONTROL” (Erasmus University Medical Center, priority 2006, published 2014)

Columns and labels:
[1] = tested on: human BON carcinoid cells; test: Apoptosis assay (DNA fragmentation, Cell Death Detection ELISA); type: cell-based; details: for effect on apoptosis, measured as DNA fragmentation, drug alone: 10^−8M
Method: Human pancreatic carcinoid BON cells were obtained from Dr Townsend (The University of Texas Medical Branch, Galveston, Tex., USA). The cells were cultured in a humidified incubator containing 5% CO2 at 37° C. The culture medium consisted of a 1:1 mixture of Dulbecco's modified Eagle's medium (DMEM) and F12K medium, supplemented with 10% FCS, penicillin (1×105 U/l), fungizone (0.5 mg/l) and 1-glutamine (2 mmol/l). Periodically, cells were confirmed as Mycoplasma-free. Cells were harvested with trypsin EDTA 10% and resuspended in medium. Before plating, cells were counted microscopically using a standard hemocytometer. […] Media and supplements were obtained from GIBCO Bio-cult Europe (Invitrogen, Breda, The Netherlands).
After trypsinization BON cells were plated in 24-well plates at a density of 1.5-2×10^4 cells/well. These plates were placed in a 37° C., 5% CO2 incubator. Three days later the medium was refreshed in the presence and absence (control group) of 5-aza-2′-deoxycytidine at different concentrations in the dose curve response experiment (10^−5M, 10^−6M, 10^−7M, 10^−8M and 10^−9M) or 5-aza-2′-deoxycytidine (5×10^−8M) with or without the somatostatin analog octreotide (10^−8M) or the dopamine agonist cabergoline (10^−8M).
Quadruplicates of each treatment were performed. After an additional incubation of 3 days, apoptosis was assessed using a commercially available ELISA kit (Cell Death Detection ELISAPlus, Roche Diagnostic GmbH, Penzberg, Germany). This assay is based on a quantitative sandwich-enzyme-immunoassay-principle, using mouse monoclonal antibodies directed against DNA and histones, respectively. This allows the specific determination of mono- and oligo-nucleosomes in the cytoplasmatic fraction of cell lysate, typical for apoptosis. The standard protocol supplied by the manufacturer was used. Briefly, the medium was carefully removed by suction, cells were incubated in 100 μl of lysis buffer (provided with the Cell Death Detection ELISAPlus assay). After lysis of the cells the solution was incubated with anti-DNA and anti-histone antibodies in a streptavidin-coated 96-well plate for 2 hours. After washing, the immunocomplex-bound peroxidase was probed with 2,2′-azino-di[3-ethylbenzthiazoline sulfonate] (a chromogenic substrate) for spectrophotometric detection at 405 nm, to quantify the amount of nucleosomes bound to the plate. Relative apoptosis was determined by a ratio of the average absorbance of the treatment wells to the average absorbance of the control wells.

[2] = tested on: human BON carcinoid tumor cells; test: Cell proliferation assay (total DNA content, Hoechst 33258); type: cell-based; details: for effect on BON carcinoid cell growth, measured as DNA content: 10^−8M, drug alone
Method: Human pancreatic carcinoid BON cells were obtained from Dr Townsend (The University of Texas Medical Branch, Galveston, Tex., USA). The cells were cultured in a humidified incubator containing 5% CO2 at 37° C. The culture medium consisted of a 1:1 mixture of Dulbecco's modified Eagle's medium (DMEM) and F12K medium, supplemented with 10% FCS, penicillin (1×105 U/l), fungizone (0.5 mg/l) and 1-glutamine (2 mmol/l). Periodically, cells were confirmed as Mycoplasma-free. Cells were harvested with trypsin EDTA 10% and resuspended in medium. Before plating, cells were counted microscopically using a standard hemocytometer. Trypan Blue staining was used to assess cell viability, which always exceeded 95%. Media and supplements were obtained from GIBCO Bio-cult Europe (Invitrogen, Breda, The Netherlands).
After trypsinization, the cells were plated in 1 ml of medium in 24-well plates at a density of 0.4-2×10^4 cells/well. The plates were then placed in a 37° C., 5% CO2 incubator. Three days later the cell culture medium was replaced with 1 ml/well medium containing 5-aza-2′-deoxycytidine at different concentrations in the dose curve response experiment (0, 10^−5M, 10^−6M, 10^−7M, 10^−8M and 10^−9M) or 5-aza-2′-deoxycytidine (5×10^−8M) with or without the somatostatin analog octreotide (10^−8M) or the dopamine agonist cabergoline (10^−8M). In experiments evaluating the combination of 5-aza-2′-deoxycytidine and octreotide or cabergoline, a pre-treatment with 5-aza-2′-deoxycytidine (5×10^−8M) has been performed for 24 hours.
Plates were further incubated at 37° C. and 5% CO2. After 3 and 6 days of treatment cells were harvested for DNA measurement. Plates for 6 days were refreshed after 3 days and compounds were added again. Quadruplicates of each treatment were performed. Measurement of total DNA-contents, representative for the number of cells, was performed using the bisbenzimide fluorescent dye (Hoechst™ 33258) (Boehring Diagnostics, La Jolla, Calif.), as previously described (Hofland L J, van Koetsveld P M, Lamberts S W. Percoll density gradient centrifugation of rat pituitary tumor cells: a study of functional heterogeneity within and between tumors with respect to growth rates, prolactin production and responsiveness to the somatostatin analog SMS 201-995. Eur J Cancer 1990; 26:37-44.).

Compound | effect on apoptosis, measured as DNA fragmentation, drug alone ([1]; 3 day incubation) | effect on BON carcinoid cell growth, measured as DNA content ([2]; 3 or 6 day incubation) | induction of DNA fragmentation ([1]; 5×10^−8M, 3 days, p<0.001 vs control) | induction of DNA fragmentation, dose curve ([1]; 3 day incubation, 10^−9M to 10^−5M, data not shown) | effect of AZA alone on DNA fragmentation (FIG. 3, FIG. 4) ([1]; AZA (5 nM) alone) | EC25 value of the apoptosis inducing effect ([1]; after 3 days of incubation) | inhibition of BON carcinoid cell growth, dose curve ([2]; 3 or 6 day incubation, 10^−9M to 10^−5M, data not shown) | inhibition of BON carcinoid cell growth at low dose ([2]; 5×10^−8M, 6 days, p<0.001 vs control) | IC25 value of the tumor cell growth inhibitory effect ([2]; after 6 days of incubation)
C[C@@H](O)[C@@H]1NC(=O)[C@H](CCCCN)NC(=O)[C@@H](Cc2c[nH]c3ccccc23)NC(=O)[C@H](Cc2ccccc2)NC(=O)[C@@H](NC(=O)[C@H](N)Cc2ccccc2)CSSC[C@@H](C(=O)N[C@H](CO)[C@@H](C)O)NC1=O [octreotide] | no statistically significant effect | no statistically significant effect |  |  |  |  |  |  | 
Nc1ncn([C@H]2C[C@H](O)[C@@H](CO)O2)c(=O)n1 [5-aza-2′-deoxycytidine] |  |  | approximately 100% | dose-dependent manner | moderate effect | approximately 5×10^−8 M | time- and dose-dependent manner | significantly inhibited | approximately 5×10^−8 M
C=CCN1C[C@H](C(=O)N(CCCN(C)C)C(=O)NCC)C[C@@H]2c3cccc4[nH]cc(c34)C[C@H]21 [cabergoline] | no statistically significant effect | no statistically significant effect |  |  |  |  |  |  | 
